Experimental data reported in PMC9090415, “Discovery of small molecule inhibitors of Plasmodium falciparum apicoplast DNA polymerase” (Journal of Enzyme Inhibition and Medicinal Chemistry, 2022).

Target: T1, bacteriophage T4 DNA polymerase (Enterobacteria phage T4, UniProt P04415)
T1 construct: made in house
T1 sequence (P04415 1-898): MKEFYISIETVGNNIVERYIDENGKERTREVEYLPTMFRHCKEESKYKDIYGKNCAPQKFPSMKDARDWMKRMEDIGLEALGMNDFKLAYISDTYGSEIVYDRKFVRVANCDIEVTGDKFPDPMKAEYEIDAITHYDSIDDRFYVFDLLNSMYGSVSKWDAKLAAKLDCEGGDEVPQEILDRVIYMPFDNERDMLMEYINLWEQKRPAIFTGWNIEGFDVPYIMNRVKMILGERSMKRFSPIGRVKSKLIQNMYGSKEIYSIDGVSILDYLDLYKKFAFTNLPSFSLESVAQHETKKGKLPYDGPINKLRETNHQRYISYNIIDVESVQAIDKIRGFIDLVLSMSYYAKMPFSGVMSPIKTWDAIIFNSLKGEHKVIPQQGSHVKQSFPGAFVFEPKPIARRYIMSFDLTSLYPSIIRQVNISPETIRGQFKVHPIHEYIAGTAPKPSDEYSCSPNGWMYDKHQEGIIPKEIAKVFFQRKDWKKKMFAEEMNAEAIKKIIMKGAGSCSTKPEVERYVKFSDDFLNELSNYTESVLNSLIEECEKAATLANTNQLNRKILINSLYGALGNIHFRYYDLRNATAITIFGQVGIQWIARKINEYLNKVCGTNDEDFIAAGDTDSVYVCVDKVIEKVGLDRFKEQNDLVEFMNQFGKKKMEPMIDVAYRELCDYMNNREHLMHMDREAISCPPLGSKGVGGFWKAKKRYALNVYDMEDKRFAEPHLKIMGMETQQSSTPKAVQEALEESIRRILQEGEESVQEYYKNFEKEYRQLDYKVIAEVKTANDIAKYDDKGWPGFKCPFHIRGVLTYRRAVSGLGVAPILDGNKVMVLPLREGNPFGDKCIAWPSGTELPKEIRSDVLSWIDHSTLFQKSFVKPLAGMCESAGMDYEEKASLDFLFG
Test: Counter-screen against bacteriophage T4 DNA polymerase
Format: biochemical
Details: for % inhibition T4 10' 2.5 / % inhibition T4 10' 5 / % inhibition T4 10' 10 / % inhibition T4 10' 20 / % inhibition T4 10' 40 / % inhibition T4 10' 80: read at 10'
Procedure, shortened: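 IC50 values come from dose-response testing of each compound against T4 DNA polymerase. This B-family polymerase was purified in-house and used as the counter-screen.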

## O=C(c1ccccc1)N1CCc2c(nc3cc(-c4ccccc4)[nH]n3c2=O)C1 [Molecule 30, O=C(N1CCc2c(C1)nc1n(c2=O)[nH]c(c1)c1ccccc1)c1ccccc1]
DRC-1, concentration 2.5
  % inhibition T4 10' 2.5: -1.603%
DRC-1, concentration 5
  % inhibition T4 10' 5: -4.492%
DRC-1, concentration 10
  % inhibition T4 10' 10: -6.45%
DRC-1, concentration 20
  % inhibition T4 10' 20: 0.1503%
DRC-1, concentration 40
  % inhibition T4 10' 40: 0.9641%
DRC-1, concentration 80
  % inhibition T4 10' 80: -0.6394%
DRC-1, read at 70', concentration 2.5
  % inhibition T4 70' 2.5: -4.009%
DRC-1, read at 70', concentration 5
  % inhibition T4 70' 5: -7.504%
DRC-1, read at 70', concentration 10
  % inhibition T4 70' 10: -7.7135%
DRC-1, read at 70', concentration 20
  % inhibition T4 70' 20: -3.401%
DRC-1, read at 70', concentration 40
  % inhibition T4 70' 40: -0.06602%
DRC-1, read at 70', concentration 80
  % inhibition T4 70' 80: -5.584%
DRC-1, read at 130', concentration 2.5
  % inhibition T4 130' 2.5: -6.3102%
DRC-1, read at 130', concentration 5
  % inhibition T4 130' 5: -10.6574%
DRC-1, read at 130', concentration 10
  % inhibition T4 130' 10: -9.449%
DRC-1, read at 130', concentration 20
  % inhibition T4 130' 20: -6.067%
DRC-1, read at 130', concentration 40
  % inhibition T4 130' 40: -1.0022%
DRC-1, read at 130', concentration 80
  % inhibition T4 130' 80: -9.233%
DRC-2, concentration 2.5
  % inhibition T4 10' 2.5: 1.68%
DRC-2, concentration 5
  % inhibition T4 10' 5: -13%
DRC-2, concentration 10
  % inhibition T4 10' 10: -11%
DRC-2, concentration 20
  % inhibition T4 10' 20: -20%
DRC-2, concentration 40
  % inhibition T4 10' 40: -17%
DRC-2, concentration 80
  % inhibition T4 10' 80: -22%
DRC-2, read at 40', concentration 2.5
  % inhibition T4 40' 2.5: 1.68%
DRC-2, read at 40', concentration 5
  % inhibition T4 40' 5: -13%
DRC-2, read at 40', concentration 10
  % inhibition T4 40' 10: -11%
DRC-2, read at 40', concentration 20
  % inhibition T4 40' 20: -20%
DRC-2, read at 40', concentration 40
  % inhibition T4 40' 40: -17%
DRC-2, read at 40', concentration 80
  % inhibition T4 40' 80: -22%
DRC-2, read at 90', concentration 2.5
  % inhibition T4 90' 2.5: 1%
DRC-2, read at 90', concentration 5
  % inhibition T4 90' 5: -13%
DRC-2, read at 90', concentration 10
  % inhibition T4 90' 10: -10%
DRC-2, read at 90', concentration 20
  % inhibition T4 90' 20: -17%
DRC-2, read at 90', concentration 40
  % inhibition T4 90' 40: -15%
DRC-2, read at 90', concentration 80
  % inhibition T4 90' 80: -21%
DRC-2, read at 180', concentration 2.5
  % inhibition T4 180' 2.5: -2.79%
DRC-2, read at 180', concentration 5
  % inhibition T4 180' 5: -16%
DRC-2, read at 180', concentration 10
  % inhibition T4 180' 10: -13%
DRC-2, read at 180', concentration 20
  % inhibition T4 180' 20: -19%
DRC-2, read at 180', concentration 40
  % inhibition T4 180' 40: -15%
DRC-2, read at 180', concentration 80
  % inhibition T4 180' 80: -21%

## O=C(c1c[nH]c2ncccc12)N1CCCC1 [Molecule 63, O=C(c1c[nH]c2c1cccn2)N1CCCC1]
DRC-2, concentration 20
  % inhibition T4 10': 25%
DRC-2, concentration 40
  % inhibition T4 10': 31%
  % inhibition T4 90': 31%
DRC-2, 40', concentration 20
  % inhibition T4 40': 25%

## Cc1ccc(C(=O)/C=C/C=C/C=C/N(C)C)o1 [Molecule 96, CN(/C=C/C=C/C=C/C(=O)c1ccc(o1)C)C]
DRC-2, concentration 10
  % inhibition T4 10': 11%
DRC-2, concentration 5
  % inhibition T4 90': 11%
